Several values for one entry are separate records, joined by “and”; a condition that tells them apart may be missing. Identical values can stand only once.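 Five compound concentrations were applied to cells in 96-well plates for 48 hours; endpoints were derived by simple linear interpolation of the resulting dose-response curve. The concentration for 50% growth inhibition is given as GI50. Definition used: TGI = concentration required for complete inhibition of growth.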 Where only a bound is given, the exact number is not on record here.

Among the data in PubChem BioAssay (NCI) are TGI and GI50 values, retold here.

Test systems include K-562 leukemia; NCI-H23 lung; SF-295 CNS; A498 renal; TK-10 renal; UO-31 renal; NCI-H522 lung; HCT-116 colon; IGROV1 ovarian; COLO 205 colon.
Common to all, as to test: inhibition of tumour cell growth, NCI panel, 48 h

Turning to `C(/C=C/c1ccccc1)=Nc1ccc2c(c1)Cc1ccccc1-2`, the TGI in the assay with K-562 leukemia, in the assay with NCI-H23 lung, with SF-295 CNS, in the assay with A498 renal, in the assay on TK-10 renal and in the assay on UO-31 renal was more than 100 µM throughout. Also, the TGI with NCI-H522 lung, with HCT-116 colon and in the assay with IGROV1 ovarian was more than 100 µM throughout.

With `CC(=O)N1N=C(c2ccc3ccccc3c2O)CC1c1cccs1` (configuration not stated), the TGI with K-562 leukemia is 22.5 µM; with NCI-H23 lung, more than 100 µM; with SF-295 CNS it was more than 100 µM; in the assay with A498 renal it was 44.5 µM; in the assay on TK-10 renal, more than 100 µM; in the assay on COLO 205 colon, more than 100 µM. In addition, the TGI with UO-31 renal is 64.1 µM; with NCI-H522 lung, 75.1 µM; with HCT-116 colon, more than 100 µM; in the assay with IGROV1 ovarian it was more than 100 µM.

As for `COc1cc(C2S/C(=C/c3ccccc3)C(=O)N2c2ccc(NC(C)=O)cc2)cc(OC)c1OC` (configuration not stated), the TGI with K-562 leukemia is more than 100 µM; in the assay with NCI-H23 lung, 66.8 µM; in the assay on SF-295 CNS it was more than 100 µM; with A498 renal it was 67.3 µM; in the assay on TK-10 renal, more than 100 µM; in the assay on COLO 205 colon it was 30.3 µM. The TGI is more than 100 µM in the assay with UO-31 renal, 26.6 µM in the assay with NCI-H522 lung and 26.1 µM with HCT-116 colon.

On to `NC(=S)N/N=C/c1nccc2ccccc12`, for which the TGI was more than 100 µM with K-562 leukemia; 6.42 µM in the assay with NCI-H23 lung; 2.03 µM with SF-295 CNS; more than 100 µM with A498 renal; more than 100 µM with TK-10 renal; more than 100 µM in the assay on COLO 205 colon. For the same molecule, the TGI is 3.42 µM with UO-31 renal, 5.24 µM in the assay on NCI-H522 lung, more than 100 µM with HCT-116 colon and more than 100 µM in the assay on IGROV1 ovarian.

`NC(CSCc1ccc(I)cc1)C(=O)O` (configuration not stated): the TGI with K-562 leukemia, in the assay on NCI-H23 lung, in the assay with SF-295 CNS, with A498 renal, in the assay with TK-10 renal and with COLO 205 colon was more than 100 µM in each case. In addition, the TGI with UO-31 renal, in the assay on NCI-H522 lung, with HCT-116 colon and with IGROV1 ovarian was more than 100 µM in each case.

For the molecule `Cc1nc2c(c(=O)[nH]1)S/C(=C(/C#N)c1nc3ccccc3[nH]1)N2c1ccccc1`, the TGI in the assay on K-562 leukemia, with NCI-H23 lung, in the assay on SF-295 CNS, with A498 renal, in the assay on TK-10 renal and in the assay with COLO 205 colon was more than 100 µM in each case. Further, the TGI with UO-31 renal, in the assay with NCI-H522 lung, in the assay with HCT-116 colon and in the assay with IGROV1 ovarian was more than 100 µM throughout.

Turning to `c1ccc(N2N=C(c3cccc(Nc4ccncc4)c3)CC2c2ccc3c(c2)OCO3)cc1` (configuration not stated), the GI50 in the assay on NCI-H23 lung was 1.94 µM; in the assay with SF-295 CNS, 1.87 µM; in the assay with A498 renal, 1.24 µM; in the assay on TK-10 renal it was 1.94 µM; in the assay on COLO 205 colon, 1.8 µM; with UO-31 renal it was 1.4 µM. Besides, the GI50 with NCI-H522 lung is 1.61 µM; in the assay with IGROV1 ovarian it was 1.7 µM. Further, the TGI in the assay with NCI-H23 lung amounted to 4.04 µM; in the assay with SF-295 CNS, 3.51 µM; with A498 renal, 5.58 µM; with TK-10 renal, 3.99 µM; in the assay on COLO 205 colon it was 3.84 µM; in the assay on UO-31 renal, 2.84 µM. Further, the TGI in the assay on NCI-H522 lung was found to be 3.48 µM; in the assay on IGROV1 ovarian, 3.6 µM.

For the molecule `O=C1C(Cl)N(c2cccc(Cl)c2)C1c1c[nH]c2ccccc12` (configuration not stated), the TGI with K-562 leukemia, with NCI-H23 lung, with SF-295 CNS, in the assay with TK-10 renal, in the assay with COLO 205 colon and in the assay on UO-31 renal was more than 100 µM throughout. For the same molecule, the TGI in the assay on NCI-H522 lung, with HCT-116 colon and in the assay on IGROV1 ovarian was more than 100 µM in each case.

With `CC[C@@H]1ON(C)[C@H]2CN(C)C(=O)[C@@H]12`, the TGI with K-562 leukemia, in the assay on NCI-H23 lung, in the assay on SF-295 CNS, in the assay on TK-10 renal, with COLO 205 colon and in the assay with UO-31 renal was more than 100 µM each time. Besides, the TGI in the assay on NCI-H522 lung, in the assay on HCT-116 colon and in the assay with IGROV1 ovarian was more than 100 µM each time.

In the case of `Nc1ccccc1Nc1ccccc1C(=O)[O-].Nc1ccccc1Nc1ccccc1C(=O)[O-].[Zn+2]`, the TGI in the assay on K-562 leukemia, with NCI-H23 lung, in the assay on SF-295 CNS, in the assay with A498 renal, with TK-10 renal and in the assay on COLO 205 colon was more than 100 µM in each case. Also, the TGI with UO-31 renal was more than 100 µM; in the assay on NCI-H522 lung it was 44.4 µM; with HCT-116 colon, more than 100 µM; in the assay on IGROV1 ovarian, more than 100 µM.

`COc1ccc(-c2csc(=Nc3ccccc3)n2CCCN(C)C)cc1`: the TGI with NCI-H23 lung came to 48.5 µM; in the assay with SF-295 CNS it was 27.6 µM; with A498 renal, 49.2 µM; with TK-10 renal, 29.8 µM; in the assay with UO-31 renal it was 44.9 µM.

With `COc1cc([C@@H]2c3cc4c(c(O)c3C[C@H]3COC(=O)[C@@H]32)OCO4)cc(OC)c1OC`, the GI50 with K-562 leukemia is 0.141 µM; in the assay on SF-295 CNS, 0.109 µM; in the assay on TK-10 renal, 0.505 µM; in the assay with COLO 205 colon it was 0.239 µM; with UO-31 renal, 0.466 µM; with NCI-H522 lung, 0.393 µM. Moreover, the GI50 was 0.0589 µM with HCT-116 colon and 0.0728 µM with IGROV1 ovarian. For the same molecule, the TGI with A498 renal is more than 100 µM; with TK-10 renal it was 37.5 µM and 167 µM and > 100 µM; in the assay with UO-31 renal it was 56.2 µM and 120 µM and > 100 µM.

Consider `C=C(C)C(=O)O[C@H]1CC2=C[C@@H](C[C@@]3(C)O[C@@H]3[C@H]3OC(=O)C(=C)[C@@H]31)OC2=O`, for which the results for the GI50 with K-562 leukemia and in the assay on HCT-116 colon were 1.21 µM and 1.4 µM, respectively. In addition, the TGI in the assay with K-562 leukemia was 47.6 µM; in the assay on NCI-H23 lung, 6.59 µM; with SF-295 CNS, 11.9 µM; in the assay with A498 renal, 9.06 µM; in the assay with COLO 205 colon it was 3.4 µM; in the assay on UO-31 renal, 13.8 µM. The TGI with NCI-H522 lung was 1.71 µM; in the assay with HCT-116 colon it was 4.61 µM; with IGROV1 ovarian, 9.46 µM.

As to `CCOC1=NC(C(F)(F)F)(C(F)(F)F)N=C(N2CCOCC2)O1`, the TGI in the assay with NCI-H23 lung, in the assay with SF-295 CNS, in the assay with TK-10 renal, in the assay with COLO 205 colon, in the assay on UO-31 renal and with NCI-H522 lung was more than 100 µM throughout. The TGI in the assay on HCT-116 colon and in the assay on IGROV1 ovarian was more than 100 µM each time.
